How the values were obtained:
Glucocorticoid receptor [1] = biological target: T1, Glucocorticoid receptor (Homo sapiens, UniProt P04150); test: Displacement of [3H]dexamethasone from human recombinant GR
T1 sequence (P04150 whole entry): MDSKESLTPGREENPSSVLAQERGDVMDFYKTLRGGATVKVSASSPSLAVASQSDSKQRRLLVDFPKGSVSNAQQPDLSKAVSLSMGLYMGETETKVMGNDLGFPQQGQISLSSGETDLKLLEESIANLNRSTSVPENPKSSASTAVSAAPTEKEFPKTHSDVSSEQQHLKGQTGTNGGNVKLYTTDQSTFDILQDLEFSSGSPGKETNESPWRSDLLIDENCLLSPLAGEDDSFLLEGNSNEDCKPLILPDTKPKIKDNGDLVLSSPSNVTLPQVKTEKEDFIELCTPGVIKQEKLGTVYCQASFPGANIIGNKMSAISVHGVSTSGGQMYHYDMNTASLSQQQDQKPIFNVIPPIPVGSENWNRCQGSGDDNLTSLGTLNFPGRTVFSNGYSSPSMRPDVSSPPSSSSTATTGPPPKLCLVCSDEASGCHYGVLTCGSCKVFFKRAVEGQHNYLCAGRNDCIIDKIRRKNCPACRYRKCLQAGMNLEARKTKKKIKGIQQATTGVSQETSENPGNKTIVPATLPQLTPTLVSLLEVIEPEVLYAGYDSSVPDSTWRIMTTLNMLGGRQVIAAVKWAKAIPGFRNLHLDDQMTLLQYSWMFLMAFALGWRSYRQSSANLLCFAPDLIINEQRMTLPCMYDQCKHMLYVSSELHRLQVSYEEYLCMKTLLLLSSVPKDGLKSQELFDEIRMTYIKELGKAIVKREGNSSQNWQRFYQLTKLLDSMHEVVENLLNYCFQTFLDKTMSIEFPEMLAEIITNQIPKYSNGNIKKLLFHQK

[2] = Half life in rat at 5 mg/kg, po; format: ADME, organism-based; parameters: dose 5 mg/kg, route oral; settings: in vivo
Glucocorticoid receptor [3] = biological target: T1, Glucocorticoid receptor; test: Antagonist activity at GR in SW1353/MMTV5 cells assessed as inhibition of dexamethasone-induced luciferase expression; format: functional, cell-based
[4] = Oral bioavailability in rat at 5 mg/kg; format: ADME, organism-based; settings: in vivo
[5] = Ratio of drug level in brain to plasma in rat at 5 mg/kg, po; format: ADME, organism-based; parameters: dose 5 mg/kg, route oral; settings: read-out: BPR
Rattus norvegicus = test: AUC in rat at 5 mg/kg, po; format: ADME, organism-based, Plasma; parameters: dose 5 mg/kg, route oral; settings: in vivo
[6] = Cmax in rat at 5 mg/kg, po; format: ADME, organism-based; parameters: dose 5 mg/kg, route oral; settings: in vivo
[7] = Half life in dog at […], po; format: ADME, organism-based, Canis lupus familiaris; parameters: dose 2.5 mg/kg, route oral; settings: in vivo
[8] = Oral bioavailability in dog at […]; format: ADME, organism-based, Canis lupus familiaris; settings: in vivo
[9] = Cmax in dog at […], po; format: ADME, organism-based, Canis lupus familiaris; parameters: dose 2.5 mg/kg, route oral; settings: in vivo
Canis familiaris = test: AUC in dog at […], po; format: ADME, organism-based, Canis lupus familiaris, Plasma; parameters: dose 2.5 mg/kg, route oral; settings: in vivo
[10] = Metabolic stability in human liver microsomes after 30 mins; format: ADME, Microsome; settings: read-out: Stability
[11] = Oral bioavailability in rat; format: ADME, organism-based; settings: in vivo

SMILES	Ki (Glucocorticoid receptor [1])	half-life [2]	Ki (Glucocorticoid receptor [3])	bioavailability [4]	Kp [5]	AUC (Rattus norvegicus)	Cmax [6]	half-life [7]	bioavailability [8]	Cmax [9]	AUC (Canis familiaris)	remaining at 0.5 h [10]	bioavailability [11]
CC(C)(C)c1ccc(S(=O)(=O)N2CCC3=Cc4c(cnn4-c4ccc(F)cc4)C[C@]3(C)C2)cc1	1.2 nM	2.7 h	53 nM	13%	0.07	1.009 µg/h/mL	199 ng/mL	4.2 h	26%	524 ng/mL	1.684 µg/h/mL	–	–
COC[C@]12Cc3cnn(-c4ccc(F)cc4)c3C=C1CCN(S(=O)(=O)c1ccc(F)cc1)C2	1.4 nM	2.1 h	33 nM	22%	1.1	0.621 µg/h/mL	106 ng/mL	4.2 h	54%	381 ng/mL	1.676 µg/h/mL	57%	–
COC[C@]12Cc3cnn(-c4ccc(F)cc4)c3C=C1CCN(S(=O)(=O)c1ccccc1)C2	1 nM	3.6 h	20 nM	3%	0.75	0.112 µg/h/mL	23 ng/mL	5.9 h	20%	258 ng/mL	0.894 µg/h/mL	–	–
CC(C)(C)c1ccc(S(=O)(=O)N2CCC3=Cc4c(cnn4-c4ccc(F)cc4)C[C@]3(CN3CCOCC3)C2)cc1	0.9 nM	2 h	7.1 nM	10%	0.1	0.302 µg/h/mL	75 ng/mL	–	–	–	–	–	–
COC[C@]12Cc3cnn(-c4ccc(F)cc4)c3C=C1CCN(S(=O)(=O)c1ccc(C(F)(F)F)cc1)C2	0.8 nM	3.4 h	28 nM	16%	0.83	0.966 µg/h/mL	163 ng/mL	6.7 h	58%	647 ng/mL	3.638 µg/h/mL	–	–

Continued by falling Ki (Glucocorticoid receptor [1]), values first:

Ki (Glucocorticoid receptor [1])	half-life [2]	Ki (Glucocorticoid receptor [3])	bioavailability [4]	Kp [5]	AUC (Rattus norvegicus)	Cmax [6]	half-life [7]	bioavailability [8]	Cmax [9]	AUC (Canis familiaris)	remaining at 0.5 h [10]	bioavailability [11]	SMILES
2.4 nM	–	16 nM	–	–	–	–	–	–	–	–	–	0%	CCNC[C@]12Cc3cnn(-c4ccc(F)cc4)c3C=C1CCN(S(=O)(=O)c1ccc(C(C)(C)C)cc1)C2
0.8 nM	2.9 h	7.7 nM	11%	0.1	0.43 µg/h/mL	94 ng/mL	–	–	–	–	–	–	COC[C@]12Cc3cnn(-c4ccc(F)cc4)c3C=C1CCN(S(=O)(=O)c1ccc(C(C)(C)C)cc1)C2
0.6 nM	–	5.2 nM	–	–	–	–	–	–	–	–	7%	–	COCCOC[C@]12Cc3cnn(-c4ccc(F)cc4)c3C=C1CCN(S(=O)(=O)c1ccc(F)cc1)C2

Reference: ChEMBL document CHEMBL1142367, “1H-Pyrazolo[3,4-g]hexahydro-isoquinolines as selective glucocorticoid receptor antagonists with high functional activity” (Bioorg Med Chem Lett, 2008)
